Assay results published in patent EP0308189B1, “Skin cleansing toilet bar with low moisture content” (THE PROCTER & GAMBLE COMPANY, priority 1987, dated 1989).

Test system: skin epidermis

Cocoyl Isethionate
Relative Skin Barrier Penetration Value: 40 | Total mg Water Penetrating the Skin in 24 Hours: 60.3 ± 17.7 mg
